This is an account of results in patent US12384789B2, “Compounds for treating Huntington's disease” (PTC Therapeutics, Inc., priority 2017, dated 2025).

The test system of this experiment is Endogenous Huntingtin Protein. Description: Endogenous Huntingtin Protein Assay (Meso Scale Discovery ELISA-based electrochemiluminescence). It is filed as cell-based. The following applies: MSD electrochemiluminescence, Table 1. The procedure:
Compounds of Formula (I) were tested using the Meso Scale Discovery (MSD) Assay provided in International Application No. PCT/US2016/066042, filed on Dec. 11, 2016 and claiming priority to United States Provisional Application U.S. 62/265,652 filed on Dec. 10, 2015, the entire contents of which are incorporated herein by reference.
The Endogenous Huntingtin Protein assay used in Example 1 was developed using the ELISA-based MSD electrochemiluminescence assay platform.
Endogenous Huntingtin Protein Assay
Meso Scale Discovery (MSD) 96-well or 384-well plates were coated overnight at 4° C. with MW1 (expanded polyglutamine) or MAB2166 monoclonal antibody (for capture) at a concentration of 1 μg/mL in PBS (30 μL per well). Plates were then washed three times with 300 μL wash buffer (0.05% Tween-20 in PBS) and blocked (100 μL blocking buffer; 5% BSA in PBS) for 4-5 hours at room temperature with rotational shaking and then washed three times with wash buffer.
Samples (25 μL) were transferred to the antibody-coated MSD plate and incubated overnight at 4° C. After removal of the lysates, the plate was washed three times with wash buffer, and 25 μL of #5656S (Cell signaling; rabbit monoclonal) secondary antibody (diluted to 0.25 μg/mL in 0.05% Tween-20 in blocking buffer) was added to each well and incubated with shaking for 1 Hour at room temperature. Following incubation with the secondary antibody, the wells were rinsed with wash buffer after which 25 μL of goat anti-rabbit SULFO TAG secondary detection antibody (required aspect of the MSD system) (diluted to 0.25 μg/mL in 0.05% Tween-20 in blocking buffer) was added to each well and incubated with shaking for 1 hour at room temperature. After rinsing three times with wash buffer, 150 μL of read buffer T with surfactant (MSD) were added to each empty well, and the plate was imaged on a SI 6000 imager (MSD) according to manufacturers' instructions provided for 96- or 384-well plates.
In general terms: ELISA stands for enzyme-linked immunosorbent assay.
`CCN1CCC(c2cc3c(F)cc(-c4cc(C)c5nc(C)sc5c4)cc3nn2)CC1` [Compound 120, 7-(2,4-dimethyl-1,3-benzothiazol-6-yl)-3-(1-ethylpiperidin-4-yl)-5-fluorocinnoline]: the IC50 (commonly the concentration needed to halve the response being measured) lay within 1000 to 3000 nM.

On to `Cn1cc2cc(-c3ccc4cc(C5=CCNCC5)cc(F)c4n3)cc(F)c2n1` [Compound 166, 8-fluoro-2-(7-fluoro-2-methyl-2H-indazol-5-yl)-6-(1,2,3,6-tetrahydropyridin-4-yl)quinoline], for which the IC50 is no more than 100 nM. The same measure for `Cc1nc2c(C)cc(-c3cc(F)c4cc(C5CCNCC5)nnc4c3)nc2o1` [Compound 148, 7-(2,7-dimethyl[1,3]oxazolo[5,4-b]pyridin-5-yl)-5-fluoro-3-(piperidin-4-yl)cinnoline]: no more than 100 nM; for `Cn1cc2c(F)c(-c3cc(F)c4cc(C5CCNCC5)nnc4c3)ccc2n1` [Compound 109, 5-fluoro-7-(4-fluoro-2-methyl-2H-indazol-5-yl)-3-(piperidin-4-yl)cinnoline]: 500 to 1000 nM. The same measure for `Cc1cc(-c2cc3c(F)cc(C4CCNCC4)cc3nn2)cc2cn(C)nc12` [Compound 177, 3-(2,7-dimethyl-2H-indazol-5-yl)-5-fluoro-7-(piperidin-4-yl)cinnoline]: no more than 100 nM; for `Cc1cc2cc(-c3cc(F)c4cc(C5CCNCC5)nnc4c3)[nH]c2c(C)n1` [Compound 191, 7-(5,7-dimethyl-1H-pyrrolo[2,3-c]pyridin-2-yl)-5-fluoro-3-(piperidin-4-yl)cinnoline]: 100 to 500 nM; for `Cc1cn2nc(-c3cc(F)c4cc(C5CCCN(CCF)CC5)nnc4c3)cc(C)c2n1` (stereo not drawn) [Compound 199, 7-(2,8-dimethylimidazo[1,2-b]pyridazin-6-yl)-5-fluoro-3-[1-(2-fluoroethyl)azepan-4-yl]cinnoline]: no more than 100 nM. The same measure for `Cc1cn2nc(-c3cc(F)c4cc(C5CCNCC5)nnc4c3)cc(CCO)c2n1` [Compound 207, 2-{6-[5-fluoro-3-(piperidin-4-yl)cinnolin-7-yl]-2-methylimidazo[1,2-b]pyridazin-8-yl}ethan-1-ol]: no more than 100 nM; for `Cc1cc(-c2cc(F)c3nc(N(C)C4CCNCC4)nnc3c2)cc2cn(C)nc12` [Compound 42, 7-(2,7-dimethyl-2H-indazol-5-yl)-5-fluoro-N-methyl-N-(piperidin-4-yl)-1,2,4-benzotriazin-3-amine]: 100 to 500 nM; for `CCOc1cc(-c2cc(F)c3nc(C4CCNCC4)nnc3c2)nn2cc(C)nc12` [Compound 59, 7-(8-ethoxy-2-methylimidazo[1,2-b]pyridazin-6-yl)-5-fluoro-3-(piperidin-4-yl)-1,2,4-benzotriazine]: no more than 100 nM. In turn, `Cc1cn2nc(-c3cc(F)c4cc(C5CCN(CCCn6cnc7ccccc76)CC5)nnc4c3)cc(C)c2n1` [Compound 145, 3-{1-[3-(1H-benzimidazol-1-yl)propyl]piperidin-4-yl}-7-(2,8-dimethylimidazo[1,2-b]pyridazin-6-yl)-5-fluorocinnoline] had an IC50 of no more than 100 nM. The same measure for `Cc1cn2nc(-c3cc(F)c4cc(C5CCN(CCF)CC5)nnc4c3)cc(C)c2n1` [Compound 83, 7-(2,8-dimethylimidazo[1,2-b]pyridazin-6-yl)-5-fluoro-3-[1-(2-fluoroethyl)piperidin-4-yl]cinnoline]: no more than 100 nM.

`COCCOc1cc(-c2cc(F)c3nc(C4CCNCC4)ccc3c2)nn2cc(C)nc12` [Compound 53, 8-fluoro-6-[8-(2-methoxyethoxy)-2-methylimidazo[1,2-b]pyridazin-6-yl]-2-(piperidin-4-yl)quinoline] gave an IC50 of 100 to 500 nM. In turn, `Cn1cc2cc(-c3ncc4cc(C5CCNCC5)ccc4n3)ccc2n1` [Compound 10, 2-(2-methyl-2H-indazol-5-yl)-6-(piperidin-4-yl)quinazoline] yielded a half-inhibitory concentration (IC50) of 100 to 500 nM. The same measure for `CCN1CCC(c2cc3c(F)cc(-c4cc(Oc5ccccc5)c5nc(C)cn5n4)cc3nn2)CC1` [Compound 200, 3-(1-ethylpiperidin-4-yl)-5-fluoro-7-(2-methyl-8-phenoxyimidazo[1,2-b]pyridazin-6-yl)cinnoline]: no more than 100 nM; for `Cc1cn2nc(-c3cc(F)c4cc(C5CC(C)N(CCO)C(C)C5)nnc4c3)cc(C)c2n1` (stereo not drawn) [Compound 155, 2-{(25,65)-4-[7-(2,8-dimethylimidazo[1,2-b]pyridazin-6-yl)-5-fluorocinnolin-3-yl]-2,6-dimethylpiperidin-1-yl}ethan-1-ol]: no more than 100 nM; for `Cc1cc(-c2cnc3cc(C4CCNCC4)ccc3c2)cc2cn(C)nc12` [Compound 29, 3-(2,7-dimethyl-2H-indazol-5-yl)-7-(piperidin-4-yl)quinoline]: 1000 to 3000 nM.

`Cc1cc(-c2ccc3nc(N(C)C4CC(C)(C)NC(C)(C)C4)ccc3c2)cc2cn(C)nc12` [Compound 11, 6-(2,7-dimethyl-2H-indazol-5-yl)-N-methyl-N-(2,2,6,6-tetramethylpiperidin-4-yl)quinolin-2-amine] had an IC50 of 1000 to 3000 nM. The same measure for `Cc1cc(-c2cc(F)c3cc(C4CCNCC4)nnc3c2)nc2cn(C)nc12` [Compound 162, 7-(2,7-dimethyl-2H-pyrazolo[4,3-b]pyridin-5-yl)-5-fluoro-3-(piperidin-4-yl)cinnoline]: no more than 100 nM.

Molecule `CCc1cc(-c2cc(F)c3cc(C4CCNCC4)nnc3c2)nn2cc(C)nc12` [Compound 105, 7-(8-ethyl-2-methylimidazo[1,2-b]pyridazin-6-yl)-5-fluoro-3-(piperidin-4-yl)cinnoline] showed an IC50 of no more than 100 nM.

`Cc1cn2nc(-c3cc(F)c4cc(C5CCN(CCN(C)C)CC5)nnc4c3)cc(C)c2n1` [Compound 127, 2-{4-[7-(2,8-dimethylimidazo[1,2-b]pyridazin-6-yl)-5-fluorocinnolin-3-yl]piperidin-1-yl}-N,N-dimethylethan-1-amine] yielded an IC50 of no more than 100 nM. The same measure for `Cc1cn2nc(-c3cc(F)c4cc(C5CCNCC5)nnc4c3)cc(Oc3ccccc3)c2n1` [Compound 195, 5-fluoro-7-(2-methyl-8-phenoxyimidazo[1,2-b]pyridazin-6-yl)-3-(piperidin-4-yl)cinnoline]: no more than 100 nM; for `Cc1cn2nc(-c3cc(F)c4cc(C5CCCN(C)CC5)nnc4c3)cc(C)c2n1` (stereo not drawn) [Compound 188, 7-(2,8-dimethylimidazo[1,2-b]pyridazin-6-yl)-5-fluoro-3-(1-methylazepan-4-yl)cinnoline]: no more than 100 nM. The same measure for `Cn1cc2cc(-c3ccc4cc(N5CCNCC5)ccc4n3)ccc2n1` [Compound 7, 2-(2-methyl-2H-indazol-5-yl)-6-(piperazin-1-yl)quinoline]: 1000 to 3000 nM.

For `Cc1cn2cc(-c3cc(F)c4nc(C5CCNCC5)nnc4c3)cc2c(C)n1` [Compound 64, 7-(1,3-dimethylpyrrolo[1,2-a]pyrazin-7-yl)-5-fluoro-3-(piperidin-4-yl)-1,2,4-benzotriazine], the IC50 was no more than 100 nM.

Consider `CCN1CCCC(c2cc3c(F)cc(-c4cc(C)c5nc(C)cn5n4)cc3nn2)CC1` (stereo not drawn) [Compound 189, 7-(2,8-dimethylimidazo[1,2-b]pyridazin-6-yl)-3-(1-ethylazepan-4-yl)-5-fluorocinnoline], for which the IC50 is no more than 100 nM. The same measure for `CCN1CCC(c2cc3c(F)cc(-c4cc(CO)c5nc(C)cn5n4)cc3nn2)CC1` [Compound 113, {6-[3-(1-ethylpiperidin-4-yl)-5-fluorocinnolin-7-yl]-2-methylimidazo[1,2-b]pyridazin-8-yl}methanol]: no more than 100 nM. The result for `Cc1cn2cc(-c3ccc4nc(C5CCNCC5)ccc4c3)nc(C)c2n1` [Compound 18, 6-(2,8-dimethylimidazo[1,2-a]pyrazin-6-yl)-2-(piperidin-4-yl)quinoline] reads 100 to 500 nM; that for `Cc1cn2nc(-c3cc(F)c4nc(C5CCN(C)CC5)ccc4c3)cc(C)c2n1` [Compound 47, 6-(2,8-dimethylimidazo[1,2-b]pyridazin-6-yl)-8-fluoro-2-(1-methylpiperidin-4-yl)quinoline], no more than 100 nM; that for `Cc1cn2nc(-c3cc(F)c4cc(C5CCN(CCO)CC5)nnc4c3)cc(CO)c2n1` [Compound 181, 2-(4-{5-fluoro-7-[8-(hydroxymethyl)-2-methylimidazo[1,2-b]pyridazin-6-yl]cinnolin-3-yl}piperidin-1-yl)ethan-1-ol], no more than 100 nM. In the case of `CCN1CCC(c2cc3c(F)cc(-c4nc5cc(C)nc(C)c5s4)cc3nn2)CC1` [Compound 197, 7-(4,6-dimethyl[1,3]thiazolo[5,4-c]pyridin-2-yl)-3-(1-ethylpiperidin-4-yl)-5-fluorocinnoline], the IC50 was no more than 100 nM. The result for `Cc1cn2nc(-c3cc(F)c4cc(C5CCN(CCF)CC5)nnc4c3)cc(C#N)c2n1` [Compound 179, 6-{5-fluoro-3-[1-(2-fluoroethyl)piperidin-4-yl]cinnolin-7-yl}-2-methylimidazo[1,2-b]pyridazine-8-carbonitrile] reads no more than 100 nM; that for `Cc1cc(-c2ccc3nc(C4CCNCC4)cnc3c2)cc2cn(C)nc12` [Compound 31, 6-(2,7-dimethyl-2H-indazol-5-yl)-2-(piperidin-4-yl)quinoxaline], 100 to 500 nM.
